Measured values from patent US20080108698A1, “Nutrient Supplement and Use of the Same” (OY ELMOMED LTD, priority 2004, published 2008).
Where “and” joins values, the source holds several entries; their conditions need not be identical. Equal entries are not always repeated.

What was measured:
[1] = Barlas et al.; 11-day study period, 60 study subjects; cited from earlier work
[2] = Trappe et al. 2002; cited from earlier work
[3] = Example 1: subjects' reports of muscle pain, stiffness, aches, power performance and adverse effects; format: in vivo, human
Excerpt: In order to assess the effects of HICA (α-hydroxy-isocaproic acid) on exercise induced muscle pain and body composition, 0.496 g of HICA (produced in VTT Technical Research Centre of Finland, Helsinki) was given thrice daily after intensive training sessions to 7 healthy volunteers for 42 days in an open study. The volunteers were national top wrestlers, weighing 79.7+/−4.5 kg (mean+/−SD) and aging 26+/−6 years (mean+/−SD). They had at least 10 training sessions a week, each lasting from 1.5 to 2.5 hours.
The subjects took HICA orally as liquid (62.5 g HICA dissolved in 630 ml water and buffered by NaOH to pH 3.8). The single dose taken three times a day after each training session was 5 ml (containing […] of HICA) of the solution mixed with apple juice. On those days they had less than three training session they took extra doses of HICA so that 3 doses were taken each day. The total daily dose was 1488 mg of HICA.
Subjects were asked to report all feelings they would associate with the treatment with HICA, e.g. pain, stiffness or aches in muscles felt during and after the training sessions.

[4] = Example 1: open 42-day study in top wrestlers, body weight and body composition by DEXA; format: in vivo, human; conditions: individual subjects 1-7; after 42 days, 0.496 g thrice daily orally
[5] = Example 1: blood pressure, heart rate and clinical chemistry before and after HICA; format: in vivo, human; conditions: n = 7, after 42 days
Excerpt: (§1) In order to assess the effects of HICA (α-hydroxy-isocaproic acid) on exercise induced muscle pain and body composition, 0.496 g of HICA (produced in VTT Technical Research Centre of Finland, Helsinki) was given thrice daily after intensive training sessions to 7 healthy volunteers for 42 days in an open study. The volunteers were national top wrestlers, weighing 79.7+/−4.5 kg (mean+/−SD) and aging 26+/−6 years (mean+/−SD). They had at least 10 training sessions a week, each lasting from 1.5 to 2.5 hours. Before the study the subjects underwent a medical examination. Twenty ml of blood was taken for chemical assays and the body weight and body composition were assessed by dual-energy X-ray absorptiometry (DEXA; LUNAR GE Medical Systems) just before starting the 42-day HICA intake. The subjects took HICA orally as liquid (62.5 g HICA dissolved in 630 ml water and buffered by NaOH to pH 3.8). The single dose taken three times a day after each training session was 5 ml (containing […] of HICA) of the solution mixed with apple juice. On those days they had less than three training session they took extra doses of HICA so that 3 doses were taken each day. The total daily dose was 1488 mg of HICA.

[6] = Example 1: open 42-day study in top wrestlers, body weight and body composition by DEXA; format: in vivo, human
Excerpt: as §1, with “hours. During 6 weeks preceding the HICA period there were no essential changes in the body weight of the wrestlers. At least for 6 weeks before and during the trial daily diets and the number, intensity, and length of daily training sessions were kept constant.” for “hours.”

mice = conditions: iv. in mice, Na-salt; cited from earlier work
[7] = Example 2: basket ball player case study, body composition by DEXA; format: in vivo, human
Method: (§2) A basket ball player (weight 83.7 kg; BMI 26.8 kg/m^2) took after intensive daily training sessions 0.496 g of HICA three times a day for 42 days in an identical design as described in Example 1. The composition of their soft tissue was analyzed in detail. DEXA-results were analyzed by a software discriminating successfully between bone, fat and lean body mass.

[8] = Example 2: subjective muscle aches and laboratory tests; format: in vivo, human; conditions: one basket ball player
Method: as §2

[9] = commercially available colorless crystals; cited from earlier work
[10] = individual subjects 1-7, after 42 days
[11] = individual subjects 1-7, after 42 days, DEXA
[12] = mean of 7 subjects, after 42 days, P < 0.05 vs before
[13] = after vs before 42-day treatment
[14] = one basketball player, after 42-day treatment

SMILES: CC(=O)Oc1ccccc1C(=O)O [aspirin]
- effect on delayed-onset muscle soreness induced by eccentric exercise [1]: neither aspirin, paracetamol nor codeine had a beneficial effect

SMILES: CC(=O)Nc1ccc(O)cc1 [paracetamol]
- effect on delayed-onset muscle soreness induced by eccentric exercise [1]: neither aspirin, paracetamol nor codeine had a beneficial effect
- effect on eccentric resistant training induced muscle soreness [2]: Neither ibuprofen nor paracetamol reduced eccentric resistant training induced muscle soreness

SMILES: COc1ccc2c3c1O[C@H]1[C@@H](O)C=C[C@H]4[C@@H](C2)N(C)CC[C@@]341 [codeine]
- effect on delayed-onset muscle soreness induced by eccentric exercise [1]: neither aspirin, paracetamol nor codeine had a beneficial effect

SMILES: CC(C)Cc1ccc(C(C)C(=O)O)cc1 (centres unmarked) [ibuprofen]
- effect on eccentric resistant training induced muscle soreness [2]: Neither ibuprofen nor paracetamol reduced eccentric resistant training induced muscle soreness

SMILES: CC(C)CC(O)C(=O)O (racemic) [HICA, DL-α-hydroxy-isocaproic acid]
- adverse effects ([3]; 42-day treatment, 7 top athletes): without any adverse effects
- pain, stiffness and aches in muscles felt during and after the training sessions (subjects' reports) ([3]; all 7 subjects, 42-day treatment): abolishment of pain, stiffness and aches in muscles
- subjects reporting enhanced power performance ([3]; subjective, after the treatment with HICA): 6 out of 7
- Whole body weight, After HICA [4]: 79.1 kilograms and 88.1 kilograms and 75.2 kilograms and 77.6 kilograms and 79.3 kilograms and 79 kilograms and 85.7 kilograms
- B-Erythrocytes, After HICA, mean ([5]; NS): 4.9 E12/l
- B-Hematocrite, After HICA, mean ([5]; NS): 42.6%
- B-Hemoglobin, After HICA, mean ([5]; NS): 149.1 g/L
- B-Leucocytes, After HICA, mean ([5]; NS): 5.7 E9/l
- E-MCH, After HICA, mean ([5]; NS): 30.4 pg
- E-MCHC, After HICA, mean ([5]; NS): 347.9 g/L
- E-MCV, After HICA, mean ([5]; NS): 87.4 fL
- S-Alanine amino transferase, After HICA, mean ([5]; NS): 31.6 U/l
- fS-Creatinine, After HICA, mean ([5]; NS): 89.2 µM
- heart rate, After HICA, mean ([5]; NS): 62.0 min⁻¹
- diastolic blood pressure, After HICA, mean ([5]; P < 0.01 vs before): 75.7 mmHg
- systolic blood pressure, After HICA, mean ([5]; P < 0.05 vs before): 139.7 mmHg
- change of bone weight (DEXA) ([6]; 42-day treatment, 7 subjects): not changed
- change of total soft tissue mass (total weight - bone weight) ([6]; 42-day treatment, P<0.05, paired t-test): increased significantly
- change of soft tissue masses of all extremities and trunk ([6]; 42-day treatment, P<0.05 and P<0.001, respectively): increased significantly
- Total weight of soft tissue in extremities, After HICA [6, 10]: 33.2 kilograms and 35.7 kilograms (2×) and 34.7 kilograms and 38.5 kilograms and 35.2 kilograms and 39.0 kilograms
- Total weight of soft tissue in trunk, After HICA [6, 10]: 38.0 kilograms and 38.3 kilograms and 39.7 kilograms and 40.4 kilograms and 43.1 kilograms and 39.8 kilograms and 44.8 kilograms
- Bone weight, After HICA [6, 11]: 4.1 kilograms (2×) and 4.4 kilograms and 4.0 kilograms (2×) and 3.6 kilograms and 3.9 kilograms
- Soft tissue weight, After HICA [6, 11]: 75.0 kilograms and 83.7 kilograms and 71.2 kilograms and 74.0 kilograms and 75.4 kilograms and 75.1 kilograms and 81.6 kilograms
- Total weight of soft tissue in trunk, After HICA, mean ([6]; mean of 7 subjects, after 42 days, P < 0.001 vs before): 40.6 kilograms
- Soft tissue weight, After HICA, mean [6, 12]: 76.6 kilograms
- Total weight of soft tissue in extremities, After HICA, mean [6, 12]: 36.0 kilograms
- Whole body weight, After HICA, mean [6, 12]: 80.57 kilograms
- Bone weight, After HICA, mean ([6]; mean of 7 subjects, after 42 days, nonsignificant vs before): 4.0 kilograms
- mean weight gain during the treatment period ([6]; mean+/-SD, 7 subjects, 42-day treatment, P<0.05 paired t-test): 0.8 kg and 0.84 ± 1.0 kg
- LD50 (mice): 650 mg/kg
- gain of lean body mass during the treatment ([7]; DEXA, one basket ball player, 42 days): 2.65 kg
- bone, Change [7, 13]: +0.0 g
- fat, Change [7, 13]: 0.3 kg
- lean, extremities, Change [7, 13]: 1.6 kg
- lean, other, Change [7, 13]: +0.0 g
- lean, total, Change [7, 13]: +2.7 g
- lean, trunk, Change [7, 13]: 1 kg
- weight, Change [7, 13]: 3 kg
- bone, After HICA [7, 14]: 4.1 kg
- fat, After HICA [7, 14]: 8.1 kg
- lean, extremities, After HICA [7, 14]: 34.8 kg
- lean, other, After HICA [7, 14]: 4.3 kg
- lean, total, After HICA [7, 14]: 74.4 kg
- lean, trunk, After HICA [7, 14]: 35.45 kg
- weight, After HICA [7, 14]: 86.6 kg
- exercise related muscle aches and pains (subjective report) ([8]; 42 days): disappearance of all exercise related muscle aches and pains
- laboratory tests, e.g. blood pressure, heart rate or blood analyses ([8]; data not shown): no changes
- solubility [9]: soluble in water and alcohols
